# The source made the active and inactive calls.
# What was measured:
# [1] = molecular target: Luciferin 4-monooxygenase (Photinus pyralis, UniProt P08659); test: inhibition of purified Photinus pyralis luciferase – biochemical, luminescence, dose response (AID 1891)
# [2] = Luminescence Cell-Based Dose Confirmation HTS to Identify Inhibitors of Platelet Dense Granule Release. [Related pubchem assays: 1663 (Primary HTS), 1678 (Summary of Project)]; assay type: functional
# [3] = Trypanosoma cruzi growth suppression in host cells – NIH3T3 host cells, beta-gal luminescence, confirmation (AID 2044); assay type: functional, cell-based;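 further: intracellular parasites grown in NIH/3T3 mouse fibroblasts as host cells; luminescent beta-galactosidase reporter signal from transgenic T. cruzi replicating inside host cells; inhibitors lower the luminescence signal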
# [4] = NIH3T3 cell viability loss – ATP luminescence, mouse fibroblasts, counter-screen, dose response (AID 2010); assay type: functional, cell-based;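 further: cells exposed to compound for about 90 hours before reading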
# [5] = Luminescence Cell-Based Dose Retest to Confirm Inhibitors of Cancer Stem Cells. [Related pubchem assays (depositor defined):AID2717, AID2721]; assay type: functional; conditions: Homo sapiens
# [6] = molecular target: T1, Replicative DNA helicase DnaB (Mycobacterium tuberculosis, UniProt P9WMR3); test: DnaB intein splicing inhibitors, dose response, biochemical, cell-free fluorescence (AID 449749); assay type: functional
# T1 sequence (P9WMR3 whole entry): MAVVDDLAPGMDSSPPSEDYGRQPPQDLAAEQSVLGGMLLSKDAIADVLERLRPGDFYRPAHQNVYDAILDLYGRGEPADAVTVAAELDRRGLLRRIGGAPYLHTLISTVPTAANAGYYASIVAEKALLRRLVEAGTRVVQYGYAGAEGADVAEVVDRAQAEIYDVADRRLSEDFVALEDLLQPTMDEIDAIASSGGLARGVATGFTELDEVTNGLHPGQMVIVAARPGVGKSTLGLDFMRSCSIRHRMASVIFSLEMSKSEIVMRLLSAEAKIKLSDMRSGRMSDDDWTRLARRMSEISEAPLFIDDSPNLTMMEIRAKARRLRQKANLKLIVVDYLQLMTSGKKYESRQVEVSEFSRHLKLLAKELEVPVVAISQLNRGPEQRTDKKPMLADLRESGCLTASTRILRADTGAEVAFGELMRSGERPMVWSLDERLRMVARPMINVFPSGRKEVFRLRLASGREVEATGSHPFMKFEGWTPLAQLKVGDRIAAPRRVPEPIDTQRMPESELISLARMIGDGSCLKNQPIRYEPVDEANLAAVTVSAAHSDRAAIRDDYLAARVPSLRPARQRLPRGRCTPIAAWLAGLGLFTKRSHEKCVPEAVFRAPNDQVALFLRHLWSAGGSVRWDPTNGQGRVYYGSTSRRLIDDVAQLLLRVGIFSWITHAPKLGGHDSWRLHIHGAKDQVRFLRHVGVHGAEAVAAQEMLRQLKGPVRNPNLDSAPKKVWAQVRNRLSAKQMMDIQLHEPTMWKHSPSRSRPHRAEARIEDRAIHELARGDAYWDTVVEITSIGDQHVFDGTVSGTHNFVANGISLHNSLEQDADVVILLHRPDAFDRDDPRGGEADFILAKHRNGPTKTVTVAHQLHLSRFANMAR
# Protein RecA = molecular target: T2, Protein RecA (Mycobacterium tuberculosis, UniProt P9WHJ3); test: Fluorescence Cell-Free Homogeneous Dose Retest to Identify Inhibitors of RecA-Intein Splicing Activity. [Related pubchem assays (depositor defined):AID2097, AID2223, AID489010, AID492950]; assay type: functional
# T2 sequence (P9WHJ3 whole entry): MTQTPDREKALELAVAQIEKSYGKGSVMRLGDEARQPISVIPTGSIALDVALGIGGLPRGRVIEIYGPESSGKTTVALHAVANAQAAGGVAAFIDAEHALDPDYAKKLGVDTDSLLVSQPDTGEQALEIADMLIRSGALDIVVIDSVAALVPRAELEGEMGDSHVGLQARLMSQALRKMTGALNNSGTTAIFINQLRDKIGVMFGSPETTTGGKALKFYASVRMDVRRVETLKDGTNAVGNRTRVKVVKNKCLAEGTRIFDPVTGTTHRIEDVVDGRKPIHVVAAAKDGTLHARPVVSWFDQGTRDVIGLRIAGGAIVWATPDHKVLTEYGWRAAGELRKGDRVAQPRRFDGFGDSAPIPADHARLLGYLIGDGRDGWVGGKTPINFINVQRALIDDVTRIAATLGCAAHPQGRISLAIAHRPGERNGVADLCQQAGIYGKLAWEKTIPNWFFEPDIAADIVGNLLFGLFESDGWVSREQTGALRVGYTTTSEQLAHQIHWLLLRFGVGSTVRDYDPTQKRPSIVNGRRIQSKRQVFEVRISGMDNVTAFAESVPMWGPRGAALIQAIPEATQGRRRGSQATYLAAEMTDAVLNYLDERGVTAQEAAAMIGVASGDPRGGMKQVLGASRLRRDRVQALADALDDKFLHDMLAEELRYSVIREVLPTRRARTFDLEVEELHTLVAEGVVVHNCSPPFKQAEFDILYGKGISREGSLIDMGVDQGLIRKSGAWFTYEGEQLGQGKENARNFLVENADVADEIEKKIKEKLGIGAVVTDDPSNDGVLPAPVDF
# Protein skinhead-1 = molecular target: T3, Protein skinhead-1 (Caenorhabditis elegans, UniProt P34707); assay type: functional
# T3 sequence (P34707 whole entry): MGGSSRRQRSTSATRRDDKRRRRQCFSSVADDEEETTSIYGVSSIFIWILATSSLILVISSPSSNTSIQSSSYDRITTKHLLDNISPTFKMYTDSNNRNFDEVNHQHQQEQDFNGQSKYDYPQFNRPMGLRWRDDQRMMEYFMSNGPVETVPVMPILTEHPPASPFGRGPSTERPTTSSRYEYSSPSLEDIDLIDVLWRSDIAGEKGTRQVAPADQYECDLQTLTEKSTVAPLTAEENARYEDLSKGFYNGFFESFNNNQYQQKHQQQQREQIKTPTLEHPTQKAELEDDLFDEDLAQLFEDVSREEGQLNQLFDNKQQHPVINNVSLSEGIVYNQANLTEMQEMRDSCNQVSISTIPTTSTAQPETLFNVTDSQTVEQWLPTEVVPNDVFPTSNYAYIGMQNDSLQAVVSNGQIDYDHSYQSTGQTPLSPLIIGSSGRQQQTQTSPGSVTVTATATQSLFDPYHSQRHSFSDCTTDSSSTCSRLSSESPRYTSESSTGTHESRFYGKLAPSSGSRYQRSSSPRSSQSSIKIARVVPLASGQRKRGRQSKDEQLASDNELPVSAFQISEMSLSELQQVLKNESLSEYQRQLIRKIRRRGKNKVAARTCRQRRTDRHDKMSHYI
# [7] = molecular target: T4, Rac GTPase-activating protein 1 (Homo sapiens, UniProt Q9H0H5); test: blockers of MgcRacGAP-driven Rac1 GTP hydrolysis – biochemical, ADP Hunter fluorescence, primary and confirmatory, confirmation (AID 624330); assay type: functional
# T4 sequence (Q9H0H5 whole entry): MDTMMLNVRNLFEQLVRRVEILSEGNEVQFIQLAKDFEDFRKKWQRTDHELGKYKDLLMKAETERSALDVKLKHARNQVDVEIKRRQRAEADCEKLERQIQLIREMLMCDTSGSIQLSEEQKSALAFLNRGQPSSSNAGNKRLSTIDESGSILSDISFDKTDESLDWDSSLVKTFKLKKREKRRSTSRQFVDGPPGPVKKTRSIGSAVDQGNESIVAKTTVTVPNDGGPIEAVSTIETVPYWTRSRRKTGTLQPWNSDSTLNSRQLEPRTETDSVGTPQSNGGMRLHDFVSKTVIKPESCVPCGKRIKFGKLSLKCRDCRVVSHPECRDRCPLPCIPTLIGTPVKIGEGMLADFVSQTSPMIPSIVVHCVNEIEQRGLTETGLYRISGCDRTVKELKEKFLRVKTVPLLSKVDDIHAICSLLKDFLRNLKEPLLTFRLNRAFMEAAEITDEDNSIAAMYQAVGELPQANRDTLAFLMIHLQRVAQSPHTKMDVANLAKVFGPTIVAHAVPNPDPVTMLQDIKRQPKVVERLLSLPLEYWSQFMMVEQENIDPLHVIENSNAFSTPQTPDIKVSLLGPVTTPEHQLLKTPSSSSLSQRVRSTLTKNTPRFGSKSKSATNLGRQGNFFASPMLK
# Large T antigen = Large T antigen (Simian virus 40, UniProt P03070); assay type: functional, Betapolyomavirus macacae;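 further: Confirmatory-stage PubChem screen for compounds that inhibit SV40 T antigen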
# Chain of Large T antigen (P03070 whole entry): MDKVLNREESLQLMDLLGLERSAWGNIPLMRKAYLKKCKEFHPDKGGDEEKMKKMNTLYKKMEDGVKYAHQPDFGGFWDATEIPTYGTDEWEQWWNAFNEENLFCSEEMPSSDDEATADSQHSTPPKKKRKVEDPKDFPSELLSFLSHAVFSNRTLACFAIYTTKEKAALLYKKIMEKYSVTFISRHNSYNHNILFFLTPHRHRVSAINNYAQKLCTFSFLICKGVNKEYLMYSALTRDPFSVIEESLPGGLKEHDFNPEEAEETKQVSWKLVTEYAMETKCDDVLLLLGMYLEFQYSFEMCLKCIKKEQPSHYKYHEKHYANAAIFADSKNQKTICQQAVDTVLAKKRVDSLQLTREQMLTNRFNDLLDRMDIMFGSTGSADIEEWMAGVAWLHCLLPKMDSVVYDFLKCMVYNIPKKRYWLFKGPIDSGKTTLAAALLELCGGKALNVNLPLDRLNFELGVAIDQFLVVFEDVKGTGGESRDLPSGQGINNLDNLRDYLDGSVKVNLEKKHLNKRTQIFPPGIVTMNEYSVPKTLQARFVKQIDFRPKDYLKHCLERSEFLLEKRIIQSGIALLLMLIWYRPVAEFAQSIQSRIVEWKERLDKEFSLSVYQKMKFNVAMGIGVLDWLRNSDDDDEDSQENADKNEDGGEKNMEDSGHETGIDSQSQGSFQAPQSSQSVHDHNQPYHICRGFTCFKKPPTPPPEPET
# Chain of Luciferin 4-monooxygenase (P08659 whole entry): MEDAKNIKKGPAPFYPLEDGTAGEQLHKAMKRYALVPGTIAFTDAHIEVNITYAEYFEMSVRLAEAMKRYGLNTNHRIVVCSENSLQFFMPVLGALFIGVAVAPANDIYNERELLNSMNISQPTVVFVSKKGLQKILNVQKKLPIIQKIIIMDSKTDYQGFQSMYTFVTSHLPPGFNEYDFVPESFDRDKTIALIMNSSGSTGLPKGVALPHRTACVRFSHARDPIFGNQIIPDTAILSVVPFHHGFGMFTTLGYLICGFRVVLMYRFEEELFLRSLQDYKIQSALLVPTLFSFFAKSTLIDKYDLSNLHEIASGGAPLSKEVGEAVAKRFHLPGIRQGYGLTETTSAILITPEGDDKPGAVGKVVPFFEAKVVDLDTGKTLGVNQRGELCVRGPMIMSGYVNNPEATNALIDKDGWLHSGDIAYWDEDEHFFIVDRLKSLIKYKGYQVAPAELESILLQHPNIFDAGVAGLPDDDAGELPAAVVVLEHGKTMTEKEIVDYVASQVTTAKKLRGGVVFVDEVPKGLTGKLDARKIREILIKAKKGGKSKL
SMILES,EC50 [1],EC50 [2],IC50 (Protein skinhead-1),further results
CN(C)c1ccc(N/C=C/C(=O)c2ccc(F)cc2)cc1,0.816 µM (active),1.5 µM (active),,EC50 [3]: 2.32 µM (active); EC50 [4]: > 30 µM (not active)
N#CC(C#N)=C(C#N)c1ccc(Nc2ccccc2)cc1,,,,AC50 [5]: 2.54 µM (active); AC50 [6]: > 380 µM (inactive); EC50 (Protein RecA): 2.49 µM (active)
O=C(NC1CCCC1)C(c1ccc(F)cc1)N(Cc1ccc(Cl)cc1)C(=O)CCl (centres undefined),,,,AC50 [6]: 9.46 µM (active); EC50 (Protein RecA): 0.965 µM (active)
CCCc1n[nH]c2c1C(c1ccc(OC(=O)c3ccco3)cc1)C(C#N)=C(N)O2 (centres undefined),,,,AC50 [6]: 3.41 µM (active); EC50 (Protein RecA): 5.22 µM (active)
Brc1ccc(-c2nc(-c3ccccc3)no2)o1,,,14.1 µM (active),
Cc1ccc(Cl)c(OCC(=O)Nc2ccccc2C(=O)NC2CC2)c1,> 112 µM (not active),> 112 µM (not active),,
CCCCCN(C(=O)CCC(=O)OCC(=O)N1C(C)CCCC1C)c1c(N)n(CCCC)c(=O)[nH]c1=O (centres undefined),> 112 µM (not active),> 112 µM (not active),,
CCOC(=O)CSc1nc2sc3c(c2c(=O)n1C1CCCCC1)CCN(C)C3,,,,EC50 [3]: 1.43 µM (active); EC50 [4]: > 30 µM (not active); AC50 [6]: > 380 µM (inactive); EC50 (Protein RecA): 15.2 µM (active)
CCOC(=O)/C(C#N)=C\c1ccc(O)c(OC)c1,,,,AC50 [6]: 27.2 µM (active); EC50 (Protein RecA): 9.54 µM (active); IC50 [7]: 48.9 µM (active)
c1ccc(OCc2cc(-c3ccccc3)no2)cc1,,,68.7 µM (inactive),
Cc1ccc2c(c1)c1nnc(SCC(=O)Nc3ccc(N(C)C)cc3)nc1n2CC(=O)O,,,,AC50 [6]: 92.5 µM (active); EC50 (Protein RecA): 0.483 µM (active)
COCC(C)NC(=O)CCS(=O)(=O)c1nc(-c2ccc(OC)cc2)cc(C(F)(F)F)n1 (centres undefined),,,,AC50 [6]: 12.5 µM (active); EC50 (Protein RecA): 6.72 µM (active)
COc1cc(/C=C2\SC(NS(=O)(=O)c3ccc(C)cc3)=NC2=O)c([N+](=O)[O-])cc1OC,,,,IC50 (Large T antigen): 41.3 µM (active)
Cn1cnc([N+](=O)[O-])c1Oc1ccc2ccccc2c1,,,,AC50 [6]: 31.9 µM (active); EC50 (Protein RecA): 12.7 µM (active)
Cc1cccc(CCNC(=O)c2cc(S(=O)(=O)N3CCCC3)cn2C)c1,> 112 µM (not active),> 112 µM (not active),,
Cc1cc(NC(=O)CSCC(=O)Nc2ccccc2N2CCCCC2)no1,> 112 µM (not active),> 112 µM (not active),,
CC(=O)c1cnc2c(-c3ccc(Cl)cc3)c(C)nn2c1C,> 112 µM (not active),78.7 µM (active),,

SMILES,EC50 [1],EC50 [2],IC50 (Protein skinhead-1),further results
Cc1onc(-c2c(F)cccc2Cl)c1C(=O)Nc1nc2ccccc2[nH]1,,,> 100 µM (inactive),
O=C(/C=C/c1ccc([N+](=O)[O-])cc1)NCc1cccs1,> 112 µM (not active),57.2 µM (active),,
CN(C)c1ccc(NS(=O)(=O)c2cc3c4c(c2)CC(=O)N4CCC3)cc1,,,,IC50 (Large T antigen): 69.8 µM (active)
Cn1nc(C(=O)Nc2nc3ccc(S(C)(=O)=O)cc3s2)ccc1=O,3.18 µM (active),7.45 µM (active),,
COc1ccc(NCC(O)Cn2cnc3c2c(=O)n(C)c(=O)n3C)cc1 (centres undefined),,,,IC50 (Large T antigen): 17.7 µM (active)
COc1ccc(-c2nc(C[S+]([O-])CC(=O)NCc3ccco3)c(C)o2)cc1 (centres undefined),> 112 µM (not active),27.9 µM (active),,
Cc1ccc2c(c1)COc1c3ccc(C(=O)N4CCOCC4)cc3nn1-2,29.6 µM (active),20.9 µM (active),,
COc1cc2c(cc1OC)[C@@H](NC(=O)CCc1ccccc1)[C@H](OCc1ccccc1)C2,,,> 100 µM (inactive),
C(/C=C/c1ccccn1)=C\c1ccccc1,,,50.8 µM (inactive),
COc1cccc(-n2cnnn2)c1,,,> 100 µM (inactive),
CN(C)C(CNC(=O)c1cccc(S(=O)(=O)N2CCN(c3ccc(F)cc3)CC2)c1)c1ccccc1 (centres undefined),,,63.4 µM (inactive),
Cc1ccc(-c2nc3ccc(Br)cn3c2Cc2ccccc2C(F)(F)F)cc1,,,75.5 µM (inactive),
COC(=O)C1C2CC3c4[nH]c5cc(OC)ccc5c4CCN3CC2CC(OC(=O)CC(C)=O)C1OC (centres undefined),,,> 100 µM (inactive),
O=C(Nc1ccccc1Cl)c1cc(C2CCCN(C(=O)OCCF)C2)on1 (centres undefined),,,> 100 µM (inactive),
O=C1NC[C@H](Cc2ccccc2)N(C[C@@H]2CCCN2C[C@H](Cc2ccc(O)cc2)N2C[C@H](Cc3ccccc3)N(CC3CCCCCC3)C(=O)C2=O)C1=O,,,> 100 µM (inactive),
Cc1ccc(S(=O)(=O)/N=C(\c2ccc(F)cc2)n2c(C)nc3ccccc32)cc1,> 112 µM (not active),> 112 µM (not active),,
CC(=O)Oc1cc(O)c2c(=O)c(OC(C)=O)c(-c3ccc(OC(C)=O)c(OC(C)=O)c3)oc2c1,,,,IC50 (Large T antigen): 14.4 µM (active)

# — ChEMBL document CHEMBL1201862, “PubChem BioAssay data set” (2004)
